Counter-ions that a name gives are not always drawn. ± gives the standard deviation of the averaged measurements.
Tested on: SK-ES-1
Assay: relative viability vs DMSO control (72 h) (fraction); higher = more viable cells
Summary of the method: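 Relative viability was measured with ATPLite and expressed as percent growth, averaged across up to triplicate wells. Sarcoma cell lines had been seeded in 384-well plates to reach 80–90% confluence, dosed after 24 h, and incubated 72 h at 37 °C, 5% CO2. All data were rescaled on a scale where 1 is full and 0 is none.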

| Structure (SMILES) | relative viability (2 pM) | relative viability (5 pM) | relative viability (15 pM) | relative viability (50 pM) | relative viability (0.00014 µM) | relative viability (0.00041 µM) | relative viability (0.0012 µM) | relative viability (0.0037 µM) | relative viability (0.011 µM) | relative viability (200 fM) | relative viability (600 fM) | relative viability (0.00017 µM) | relative viability (0.00051 µM) | relative viability (0.00152 µM) | relative viability (0.00457 µM) | relative viability (0.01372 µM) | relative viability (0.04115 µM) | relative viability (0.1235 µM) | relative viability (0.3704 µM) | relative viability (1.111 µM) | relative viability (3.333 µM) | relative viability (10 µM) |
| --- | --- | --- | --- | --- | --- | --- | --- | --- | --- | --- | --- | --- | --- | --- | --- | --- | --- | --- | --- | --- | --- | --- |
| COc1cc2c(cc1O)CCN[C@]21CS[C@@H]2c3c(OC(C)=O)c(C)c4c(c3[C@H](COC1=O)N1[C@@H]2[C@H]2c3c(cc(C)c(OC)c3O)C[C@@H]([C@@H]1O)N2C)OCO4 [Trabectedin] | 0.945 ± 0.051 | 0.859 ± 0.046 | 0.643 ± 0.086 | 0.388 ± 0.069 | 0.169 ± 0.019 | 0.0592 ± 0.008 | 0.00217 ± 0.0018 | 3.33e-05 ± 0.00035 | 0.0054 ± 0.0013 | 1.02 ± 0.063 | 0.938 ± 0.031 |  |  |  |  |  |  |  |  |  |  |  |
| CN1CCN(c2ccc3nc(-c4c(N)c5c(F)cccc5[nH]c4=O)[nH]c3c2)CC1 [Dovitinib] |  |  |  |  |  |  |  |  |  |  |  | 1.02 ± 0.013 | 1.07 ± 0.037 | 1.044 ± 0.0086 | 1.03 ± 0.022 | 1.07 ± 0.015 | 0.963 ± 0.049 | 0.937 ± 0.039 | 0.676 ± 0.012 | 0.365 ± 0.0063 | 0.155 ± 0.017 | 0.0451 ± 0.0026 |
| C[C@@H]1COCCN1c1cc(-c2ccnn2C)c2ccnc(-c3ccn[nH]3)c2n1 |  |  |  |  |  |  |  |  |  |  |  | 1.03 ± 0.031 | 1.05 ± 0.03 | 1.03 ± 0.052 | 1.09 ± 0.055 | 1.05 ± 0.039 | 0.856 ± 0.024 | 0.562 ± 0.037 | 0.285 ± 0.0067 | 0.156 ± 0.0046 | 0.101 ± 0.0046 | 0.112 ± 0.0035 |
| Cn1cc(-c2cc3c(N4CCN(c5ncc([C@@](C)(N)c6ccc(F)cc6)cn5)CC4)ncnn3c2)cn1 [Avapritinib] |  |  |  |  |  |  |  |  |  |  |  | 0.98 ± 0.026 | 0.981 ± 0.045 | 0.941 ± 0.011 | 1 ± 0.018 | 0.989 ± 0.05 | 0.96 ± 0.042 | 0.948 ± 0.027 | 0.975 ± 0.036 | 0.906 ± 0.018 | 0.778 ± 0.071 | 0.579 ± 0.022 |
| C[C@]1(O)C[C@@H](c2nc(-c3ccc4ccc(-c5ccccc5)nc4c3)c3c(N)nccn32)C1 [Linsitinib] |  |  |  |  |  |  |  |  |  |  |  | 1.05 ± 0.039 | 1.05 ± 0.034 | 1.08 ± 0.019 | 1.07 ± 0.051 | 1.03 ± 0.067 | 0.967 ± 0.038 | 0.75 ± 0.026 | 0.479 ± 0.042 | 0.341 ± 0.013 | 0.308 ± 0.013 | 0.21 ± 0.0051 |
| Cc1nc(NC(=O)N2CCC[C@H]2C(N)=O)sc1-c1ccnc(C(C)(C)C(F)(F)F)c1 [Alpelisib] |  |  |  |  |  |  |  |  |  |  |  | 1.02 ± 0.032 | 1 ± 0.047 | 1.01 ± 0.039 | 1.01 ± 0.054 | 0.995 ± 0.057 | 0.931 ± 0.033 | 0.888 ± 0.052 | 0.675 ± 0.057 | 0.558 ± 0.0047 | 0.425 ± 0.024 | 0.289 ± 0.02 |
| COc1cccc2c1C(=O)c1c(O)c3c(c(O)c1C2=O)C[C@@](O)(C(=O)CO)C[C@@H]3O[C@H]1C[C@H](N)[C@H](O)[C@H](C)O1 [Doxorubicin Hydrochloride] |  |  |  |  |  |  |  |  |  |  |  | 0.999 ± 0.033 | 1.05 ± 0.074 | 1 ± 0.057 | 0.991 ± 0.085 | 0.604 ± 0.065 | 0.307 ± 0.025 | 0.123 ± 0.014 | 0.0254 ± 0.0066 | 0.000533 ± 0.00072 | -0.000167 ± 0.00091 | 0.00357 ± 0.00093 |
| CNC(=O)c1ccc(-c2cnc3ncc(Cc4ccc5ncccc5c4)n3n2)cc1F [Capmatinib] |  |  |  |  |  |  |  |  |  |  |  | 1.06 ± 0.011 | 1.05 ± 0.022 | 1.11 ± 0.023 | 1.08 ± 0.04 | 1.06 ± 0.021 | 1.09 ± 0.015 | 1.09 ± 0.048 | 1.08 ± 0.049 | 1.12 ± 0.03 | 1.08 ± 0.026 | 1.07 ± 0.026 |
| Cc1ccc(NC(=O)c2ccc(CN3CCN(C)CC3)cc2)cc1Nc1nc(-c2cccnc2)cs1 [Masitinib] |  |  |  |  |  |  |  |  |  |  |  | 1 ± 0.018 | 0.9842 ± 0.008 | 0.999 ± 0.032 | 1.06 ± 0.013 | 0.981 ± 0.033 | 1.01 ± 0.017 | 1 ± 0.042 | 0.93 ± 0.05 | 0.817 ± 0.039 | 0.5209 ± 0.0016 | 0.138 ± 0.012 |
| C[C@@H](c1ccc2nccn2c1)n1nnc2ncc(-c3cnn(C)c3)nc21 [Volitinib] |  |  |  |  |  |  |  |  |  |  |  | 1.02 ± 0.025 | 1.01 ± 0.06 | 1.05 ± 0.031 | 1.07 ± 0.021 | 1.05 ± 0.047 | 1.04 ± 0.033 | 1.04 ± 0.051 | 1.03 ± 0.036 | 1.05 ± 0.1 | 1.05 ± 0.058 | 1.01 ± 0.083 |
| CC(C)(C)c1cc(NC(=O)Nc2ccc(-c3cn4c(n3)sc3cc(OCCN5CCOCC5)ccc34)cc2)no1 [Quizartinib] |  |  |  |  |  |  |  |  |  |  |  | 0.995 ± 0.028 | 1.05 ± 0.05 | 1.08 ± 0.014 | 1.1 ± 0.036 | 1.08 ± 0.037 | 1.04 ± 0.011 | 1.08 ± 0.035 | 1.1 ± 0.069 | 0.904 ± 0.033 | 0.674 ± 0.049 | 0.594 ± 0.056 |
| CC(C)N1CCN(Cc2cnc(-c3cc(-c4cccc5[nH]ccc45)cc4[nH]ncc34)o2)CC1 [Nemiralisib] |  |  |  |  |  |  |  |  |  |  |  | 0.934 ± 0.039 | 0.915 ± 0.03 | 0.945 ± 0.034 | 0.932 ± 0.035 | 0.985 ± 0.068 | 0.957 ± 0.041 | 0.977 ± 0.026 | 0.961 ± 0.055 | 0.931 ± 0.04 | 0.76 ± 0.027 | 0.114 ± 0.053 |
| C=CC(=O)N1CCC[C@@H](n2nc(-c3ccc(Oc4ccccc4)cc3)c3c(N)ncnc32)C1 [Ibrutinib] |  |  |  |  |  |  |  |  |  |  |  | 1.008 ± 0.0073 | 1.02 ± 0.054 | 1.02 ± 0.026 | 1.02 ± 0.054 | 1 ± 0.085 | 1.04 ± 0.03 | 1 ± 0.011 | 1.06 ± 0.036 | 1.057 ± 0.0088 | 1.02 ± 0.021 | 0.743 ± 0.043 |
| CN1CCC(COc2cnc(-c3cccc(Cn4nc(-c5cccc(C#N)c5)ccc4=O)c3)nc2)CC1 [Tepotinib] |  |  |  |  |  |  |  |  |  |  |  | 0.997 ± 0.018 | 1.08 ± 0.037 | 1.06 ± 0.026 | 1.06 ± 0.023 | 1.02 ± 0.018 | 1.06 ± 0.028 | 1.003 ± 0.0064 | 1 ± 0.037 | 0.974 ± 0.045 | 0.98 ± 0.038 | 0.718 ± 0.031 |
| C[C@@H]1CCN(C(=O)CC#N)C[C@@H]1N(C)c1ncnc2[nH]ccc12 [Tofacitinib] |  |  |  |  |  |  |  |  |  |  |  | 1 ± 0.032 | 1.05 ± 0.059 | 1.01 ± 0.023 | 1.03 ± 0.049 | 1.04 ± 0.046 | 1.01 ± 0.056 | 0.997 ± 0.056 | 1.01 ± 0.049 | 0.985 ± 0.081 | 1.03 ± 0.056 | 1.02 ± 0.06 |
| Cc1cc(Nc2ncnc3ccc(NC4=NC(C)(C)CO4)cc23)ccc1Oc1ccn2ncnc2c1 [Tucatinib] |  |  |  |  |  |  |  |  |  |  |  | 1.07 ± 0.025 | 1.04 ± 0.043 | 1.06 ± 0.039 | 1.1 ± 0.022 | 1.13 ± 0.064 | 1.06 ± 0.059 | 1.08 ± 0.079 | 1.06 ± 0.019 | 1.01 ± 0.011 | 0.98 ± 0.023 | 0.883 ± 0.017 |
| O=C(Nc1cnn2ccc(N3CCC[C@@H]3c3cc(F)ccc3F)nc12)N1CC[C@H](O)C1 [Larotrectinib] |  |  |  |  |  |  |  |  |  |  |  | 1.01 ± 0.018 | 1.04 ± 0.048 | 1.04 ± 0.026 | 1.04 ± 0.064 | 1.04 ± 0.038 | 1.03 ± 0.053 | 1 ± 0.02 | 1.02 ± 0.062 | 1 ± 0.03 | 0.969 ± 0.034 | 1.03 ± 0.058 |
| C=CC(=O)N1CCC([C@@H]2CCNc3c(C(N)=O)c(-c4ccc(Oc5ccccc5)cc4)nn32)CC1 [Zanubrutinib] |  |  |  |  |  |  |  |  |  |  |  | 0.906 ± 0.065 | 0.938 ± 0.088 | 0.994 ± 0.05 | 0.984 ± 0.083 | 0.949 ± 0.043 | 0.953 ± 0.029 | 0.934 ± 0.041 | 0.953 ± 0.057 | 0.894 ± 0.069 | 0.903 ± 0.031 | 0.845 ± 0.038 |
| CO[C@H]1C[C@@H]2CC[C@@H](C)[C@@](O)(O2)C(=O)C(=O)N2CCCC[C@H]2C(=O)O[C@H]([C@H](C)C[C@@H]2CC[C@@H](OP(C)(C)=O)[C@H](OC)C2)CC(=O)[C@H](C)/C=C(\C)[C@@H](O)[C@@H](OC)C(=O)[C@H](C)C[C@H](C)/C=C/C=C/C=C/1C [Ridaforolimus] |  |  |  |  |  |  |  |  |  |  |  | 1.03 ± 0.059 | 1.04 ± 0.033 | 0.978 ± 0.051 | 0.806 ± 0.055 | 0.675 ± 0.037 | 0.643 ± 0.037 | 0.601 ± 0.014 | 0.555 ± 0.026 | 0.56 ± 0.0043 | 0.545 ± 0.029 | 0.52 ± 0.011 |
